{
  "source": "patent EP2218450A1",
  "about": "“Memantine for treating bipolar mood disorders resistant to conventional treatments” (Serra, Gino, priority 2009, dated 2010)",
  "key": {"[1]": {"tested_on": "dopamine receptor sensitization", "conditions": "cited from earlier work"}, "[2]": {"tested_on": "addictions", "conditions": "cited from earlier work"}, "[3]": {"tested_on": "depressive symptoms", "conditions": "cited from earlier work"}, "[4]": {"tested_on": "bipolar patients", "method": "We report, in order to exemplify, the most clinically significant cases in bipolar patients (DSM IV-TR) resistant to hitherto available treatments.\nMemantine was administered at 10-30 mg/day (according to the doses used for Alzheimer Disease and in many off-label uses of the drug in other psychiatric disorders) to 18 bipolar patients (mean age 42, range 24-61, SD 11): 13 BP type 1 (11 women and 2 men) and 5 BP type 2 (3 women and 2 men).\nThe Memantine treatment was added to the ongoing treatment which was left unmodified. The severity of the patients' condition before Memantine, and the change after Memantine addition was evaluated on the GCI-BP Overall Bipolar Illness scale: • GCI-BP Overall Bipolar Illness: Severity • 1. Normal, not ill; • 2. Minimally ill; • 3. Mildly ill; • 4. Moderately ill; • 5. Markedly ill; • 6. Severely ill; • 7. Very severely ill.\nAll patients have been followed-up for 24 weeks. […] Very much improved • 2. Much improved • 3. […] No change • 5. Minimally worse • 6. Much worse • 7. Very much worse"}, "[5]": {"tested_on": "Pervasive development disorders", "conditions": "five open clinical studies and one case report; cited from earlier work"}, "[6]": {"tested_on": "catatonic schizophrenia", "conditions": "cited from earlier work"}, "[7]": {"tested_on": "NMDA glutamate receptor", "conditions": "compared to more powerful NMDA antagonists such as phencyclidine, ketamine and MK-801; cited from earlier work"}, "[8]": {"tested_on": "OCD", "conditions": "cited from earlier work"}, "[9]": {"tested_on": "binge eating disorder", "conditions": "five obese patients affected by binge eating disorder; cited from earlier work"}, "[10]": {"conditions": "at 24 weeks, Memantine 10-30 mg/day added to ongoing treatment, 18 bipolar patients"}},
  "note": "Read-outs that look alike come from different tables or passages of the source.",
  "data": [
    {"smiles": "O=C(O)C1CN(CCCP(=O)(O)O)CCN1", "note": "(stereo not drawn) [CPP]", "values": [
      {"measurement": "prevention of dopamine D2 receptors sensitization induced by imipramine", "setting": "[1]", "result": "fails to pevent"}
    ]},
    {"smiles": "C[C@]12N[C@H](Cc3ccccc31)c1ccccc12", "note": "[MK.801]", "values": [
      {"measurement": "prevention of dopamine receptor sensitization induced by electroconvulsive shock", "setting": "[1]", "result": "completely prevents"},
      {"measurement": "prevention of dopamine receptor sensitization induced by imipramine", "setting": "[1]", "result": "completely prevents"}
    ]},
    {"smiles": "CC12CC3CC(C)(C1)CC(N)(C3)C2", "note": "[Memantine]", "values": [
      {"measurement": "benefit in nicotine or cocaine addiction", "setting": "[2]", "result": "no benefit has been detected"},
      {"measurement": "symptoms of heroin withdrawal", "setting": "[2]", "result": "effective in reducing the symptoms of heroin withdrawal"},
      {"measurement": "symptoms of alcohol withdrawal syndrome", "setting": "[2]; one study (41)", "result": "reduction of the symptoms of alcohol withdrawal syndrome"},
      {"measurement": "craving for alcohol", "setting": "[2]; two studies (39, 40)", "result": "reduction in craving for alcohol"},
      {"measurement": "alcohol consumption", "setting": "[2]; two studies (42, 43), in one the effect did not significantly differ from placebo", "result": "reduction in alcohol consumption"},
      {"measurement": "effect on depressive symptoms", "setting": "[3]; patient, 10 mg/die", "result": "improvement in the depressive symptoms"},
      {"measurement": "effect on depressive symptoms", "setting": "[3]; person, 20 mg/die in combination with conventional antidepressant treatment, within a week", "result": "improvement in various depressive symptoms"},
      {"measurement": "patients very much or much improved", "setting": "[4]; after 24 weeks of Memantine treatment, 18 bipolar patients", "result": 72.2, "unit": "%"},
      {"measurement": "rapid cyclers that reached stability", "setting": "[4]; among the ten rapid cyclers, 24 weeks", "result": "six"},
      {"measurement": "patients remained unchanged (score 4), GCI-BP overall Bipolar Illness: Change from preceding phase", "setting": "[4]; [10]", "result": 3, "unit": "patients"},
      {"measurement": "patients scored 1 (very much improved), GCI-BP overall Bipolar Illness: Change from preceding phase", "setting": "[4]; [10]", "result": 9, "unit": "patients"},
      {"measurement": "patients scored 2 (much improved), GCI-BP overall Bipolar Illness: Change from preceding phase", "setting": "[4]; [10]", "result": 4, "unit": "patients"},
      {"measurement": "patients scored 3 (minimally improved), GCI-BP overall Bipolar Illness: Change from preceding phase", "setting": "[4]; [10]", "result": 2, "unit": "patients"},
      {"measurement": "mean time to improvement", "setting": "[4]; range 6-132, SD 48,4, Memantine 10-30 mg/day", "result": 55, "unit": "days"},
      {"measurement": "effect on symptoms", "setting": "[5]", "result": "symptomatic improvement"},
      {"measurement": "effect in schizophrenia, controlled clinical trial", "setting": "[6]; in combination with an atypical antipsychotic", "result": "No improvement was observed"},
      {"measurement": "effect on symptoms of catatonic schizophrenia", "setting": "[6]; three case reports, 10 mg twice a day in two patients, 10 mg per day in the other", "result": "improvement in the symptoms"},
      {"measurement": "affinity for the receptor", "setting": "[7]", "result": "low affinity"},
      {"measurement": "patients with symptomatic improvements", "setting": "[8]; case reports, three patients with OCD, 5-15 mg a day", "result": "Two"},
      {"measurement": "patients with symptomatic improvement", "setting": "[8]; open-label study, out of 14, Memantine 20 mg in combination with SSRIs", "result": 6, "unit": "patients"},
      {"measurement": "effect on appetite, binge eating and body weight", "setting": "[9]", "result": "diminished appetite, the disappearance of binge eating (in two out of five patients) and a reduction of body weight"}
    ]}
  ]
}
